Laboratory results published in US20240358885A1, “COMPOSITIONS FOR EMBOLIZATION” (IBERHOSPITEX, S.A., priority 2021, published 2024).

What was measured:
[1] = Radiopacity loss and homogeneity of precipitates incubated in PBS at 37° C.; type: physicochemical; parameters: key to Homogeneous radiopacity (0-1): non-homegeneous (score=0); homogeneous (score=1); conditions: for Radiopacity loss (0-3) / Homogeneous radiopacity (0-1): score; for Radiopacity loss (0-3): 30 days in PBS at 37° C. vs time=0, 150 mg equivalent iodine/ml with 6% ethylene vinyl alcohol copolymer in DMSO; for Homogeneous radiopacity (0-1): C-arm X-ray; for radiopacity loss in PBS over time (in words): PBS at 37° C., 30 min and 30 days
Description: (§1) The resulting solutions were assayed to assess the precipitation behavior and the radiopacity loss.
Radiopacity loss of precipitates was determined by comparing the radiopacity of freshly prepared samples (time=0) and samples incubated for 30 days in phosphate buffered saline (PBS) at 37° C. PBS was changed daily when possible. Radiopacity was determined using a C-arm X-ray equipment (OEC Fluorostar 7900COMPACT2, General Electric). Radiopacity loss was scored as radiostable (score =0) when the radiopacity loss was below 5%, slightly radiolabile when the radiopacity loss was comprised between 5 to 25% radiopacity loss (score=1), moderately radiolabile when the radiopacity loss was comprised between 26 to 69% radiopacity loss (score=2) and highly radiolabile when the radiopacity loss was comprised between 70to 100% radiopacity loss (score=3). Homogeneity of the radiopacity was also scored as non-homegeneous (score=0) or homogeneous (score=1).
The procedure was as defined above. It can be observed that formulations with high logP values, i.e. above 7.0, are radiostable, while formulations with low logP values, i.e. below 2.0 (logP (LFE13)=−1.6 and logP (LFE23) at pH 7.4=−0.5) lose their radiopacity within minutes.

[2] = Precipitation behavior on slow injection into PBS; type: physicochemical; parameters: key: cohesive (2); cohesive with loss of some material (1); uncontrollable injection or not cohesive (0); conditions: score; 100 ul injected slowly into PBS, 27 G needle
Description: as §1
Embolization formulations were slowly injected into phosphate buffered saline (PBS) using a syringe and a fine needle (27 G). Precipitates of embolizing material were obtained after slow injection (1 minute approximately) of 100 ul of embolization formulations. The precipitation behavior was observed and scored as cohesive (2), cohesive with loss of some material (1) and uncontrollable injection or not cohesive (0).

renal artery = experiment: In vivo embolization of porcine kidney; conditions: 0.6 ml injected into the renal artery, 35 kg swine
Description: In this example, a 35 kg swine was prepared for blood vessel embolization using the embolic composition LFE09 prepared according to Example 2. Embolization of the left kidney proceeded by placement of a microcatheter into the kidney. The catheter was advanced into the renal artery, flushed with contrast agent to identify the location and then flushed with DMSO, followed by 0.6 ml of the LFE09 composition described above, followed yet by more DMSO within the catheter. LFE09 composition was quickly injected into the renal artery. […] After 14 days, the right kidney was embolized with 0.6 ml of the same LFE09 formulation and the animal was euthanized.

[3] = Radiopacity loss and homogeneity of precipitates incubated in PBS at 37° C.; type: physicochemical; conditions: 30 min of incubation in PBS at 37° C.
[4] = 30 days of incubation in PBS at 37° C.

| Homogeneous radiopacity (0-1) [1] | Precipitation (0-2) [2] | % of radiopacity compared to time zero [1, 4] [%] | radiopacity loss in PBS over time (in words) [1] | % of radiopacity compared to time zero ([1]; t zero) [%] | % of radiopacity compared to time zero [3] [%] | SMILES | Radiopacity loss (0-3) [1] | embolization of the kidney (in words) (renal artery) |
| --- | --- | --- | --- | --- | --- | --- | --- | --- |
| 1 | 2 |  |  |  |  | CCCCCCOC(=O)Cn1cc(I)c(=O)c(I)c1 [LFE04] | 2 (moderately radiolabile when the radiopacity loss was comprised between 26 to 69% radiopacity loss (score=2)) |  |
| 1 | 2 | 14.5 | significant radiopacity loss | 100.0 |  | CCCOC(=O)Cn1cc(I)c(=O)c(I)c1 [LFE03] | 3 (highly radiolabile when the radiopacity loss was comprised between 70to 100% radiopacity loss (score=3)) |  |
| 0 | 2 |  |  |  |  | CCCCCCOc1c(I)cc(I)cc1I [LFE01] | 1 (slightly radiolabile when the radiopacity loss was comprised between 5 to 25% radiopacity loss (score=1)) |  |
| 1 | 2 | 91.4 | significant radiopacity loss | 100.0 |  | CCCCCCOC(=O)c1c(I)c(NC(C)=O)c(I)c(NC(C)=O)c1I [LFE21] | 1 (slightly radiolabile when the radiopacity loss was comprised between 5 to 25% radiopacity loss (score=1)) |  |
| 1 | 2 |  |  |  |  | CCCOC(=O)c1c(I)c(NC(C)=O)c(I)c(NC(C)=O)c1I [LFE22] | 1 (slightly radiolabile when the radiopacity loss was comprised between 5 to 25% radiopacity loss (score=1)) |  |
| 1 | 1 | 19.0 |  | 100.0 | 35.6 | CC(=O)Nc1c(I)c(NC(C)=O)c(I)c(C(=O)O)c1I [LFE23, Diatrizoic acid, reference compound] | 3 (highly radiolabile when the radiopacity loss was comprised between 70to 100% radiopacity loss (score=3)) |  |
| 1 | 0 | 11.9 |  | 100.0 | 29.0 | CN(C(=O)CO)c1c(I)c(C(=O)NCC(O)CO)c(I)c(C(=O)NCC(O)CO)c1I (centres unmarked) [LFE13, iomeprol, reference compound] | 3 (highly radiolabile when the radiopacity loss was comprised between 70to 100% radiopacity loss (score=3)) |  |
| 1 | 2 |  |  |  |  | CC(=O)OCC(=O)N(C)c1c(I)c(C(=O)NCC(COC(C)=O)OC(C)=O)c(I)c(C(=O)NCC(COC(C)=O)OC(C)=O)c1I (centres unmarked) [LFE14] | 3 (highly radiolabile when the radiopacity loss was comprised between 70to 100% radiopacity loss (score=3)) |  |
| 0 | 1 |  |  |  |  | CCOC(=O)COc1c(I)cc(I)cc1I [LFE02, ethyl 2,4,6-triiodophenoxyacetate] | 2 (moderately radiolabile when the radiopacity loss was comprised between 26 to 69% radiopacity loss (score=2)) |  |

Continued, molecule first:

| SMILES | Homogeneous radiopacity (0-1) [1] | Precipitation (0-2) [2] | % of radiopacity compared to time zero [1, 4] [%] | radiopacity loss in PBS over time (in words) [1] | % of radiopacity compared to time zero ([1]; t zero) [%] | % of radiopacity compared to time zero [3] [%] | Radiopacity loss (0-3) [1] | embolization of the kidney (in words) (renal artery) |
| --- | --- | --- | --- | --- | --- | --- | --- | --- |
| COCCOCCOCCOCCOCCOc1c(I)cc(I)cc1I [LFE07] | 1 | 2 |  |  |  |  | 2 (moderately radiolabile when the radiopacity loss was comprised between 26 to 69% radiopacity loss (score=2)) |  |
| O=C(OCCOCCOCCOCCOCCO)c1cc(I)cc(I)c1I [LFE17] | 1 | 2 |  |  |  |  | 2 (moderately radiolabile when the radiopacity loss was comprised between 26 to 69% radiopacity loss (score=2)) |  |
| COCCOCCOCCOc1c(I)cc(I)cc1I [LFE05] | 0 | 2 |  |  |  |  | 3 (highly radiolabile when the radiopacity loss was comprised between 70to 100% radiopacity loss (score=3)) |  |
| CC(=O)OCCOCCOCCOc1c(I)cc(I)cc1I [LFE12] | 0 | 2 |  |  |  |  | 2 (moderately radiolabile when the radiopacity loss was comprised between 26 to 69% radiopacity loss (score=2)) |  |
| OCCOCCOCCOc1c(I)cc(I)cc1I [LFE06] | 1 | 2 |  |  |  |  | 2 (moderately radiolabile when the radiopacity loss was comprised between 26 to 69% radiopacity loss (score=2)) |  |
| COCCOCCOCCOCCOCCOCCOCCOCCOCCOCCOCCOCCOc1c(I)cc(I)cc1I [LFE08] | 1 | 0 | 29.3 | significant radiopacity loss | 100.0 |  | 2 (moderately radiolabile when the radiopacity loss was comprised between 26 to 69% radiopacity loss (score=2)) |  |
| COCCOCCOCCOC(=O)COc1c(I)cc(I)cc1I [LFE09] | 1 | 2 | 64.7 | significant radiopacity loss | 100.0 |  | 3 (highly radiolabile when the radiopacity loss was comprised between 70to 100% radiopacity loss (score=3)) | the upper pole of the kidney was blocked |
| CCCCC(CC)COc1c(I)cc(I)cc1I (centres unmarked) [LFE24] | 0 | 1 | 101.9 | complete radiostability | 100.0 | 101.3 | 0 (radiostable (score =0) when the radiopacity loss was below 5%) |  |
| O=C(COc1c(I)cc(I)cc1I)OCCOCCOCCO [LFE10] | 1 | 2 |  |  |  |  | 3 (highly radiolabile when the radiopacity loss was comprised between 70to 100% radiopacity loss (score=3)) |  |
| COCCOCCOCCOCCOCCOCc1cc(I)cc(I)c1I [LFE19] | 1 | 2 |  |  |  |  | 1 (slightly radiolabile when the radiopacity loss was comprised between 5 to 25% radiopacity loss (score=1)) |  |
| COCCOCCOCCOCc1cc(I)cc(I)c1I [LFE20] | 0 | 2 |  |  |  |  | 1 (slightly radiolabile when the radiopacity loss was comprised between 5 to 25% radiopacity loss (score=1)) |  |
